Measurements reported in US6867207B2, “IL-5 inhibiting 6-azauracil derivatives” (Janssen Pharmaceutica N.V., priority 1997, dated 2005).

Test system: IL-5 production
Experiment: In vitro inhibition of IL-5 production in human blood (phytohemagglutinin-stimulated whole blood, ELISA);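 note: values marked with an asterisk were tested at 10 µM and unmarked values at 1 µM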
Format: cell-based
Conditions: test dose 1×10^−6 M, 48 hours
Protocol: In Vitro Inhibition of IL-5 Production in Human Blood
Human Whole Blood Stimulation
Peripheral blood from healthy male donors was drawn into heparinized syringes (12.5 U heparin/ml). Blood samples were three-fold diluted in RMPI 1640 medium (Life Technologies, Belgium) supplemented with 2 mM L-glutamine, 100 U/ml penicillin and 100 μg/ml streptomycin, and 300 μl fractions were distributed in 24-well multidisc plates. Blood samples were preincubated (60 minutes at 37° C.) in a humidified 6% CO2-atmosphere with 100 μl of drug solvent (final concentration 0.02% dimethylsulfoxide in RPMI 1640) or with 100 μl of an appropriate dose of test compound before being stimulated by the addition of 100 μl of phytohemagglutinin HA17 (Murex, UK) at a final concentration of 2 μg/ml. After 48 hours, cell-free supernatant fluids were collected by centrifugation and stored at −70° C. until tested for the presence of IL-5.
IL-5 measurements were conducted as described in Van Wauwe et al. (1996, Inflamm Res, 45, 357-363) on page 358 using ELISA.
Table 9 lists the percentage inhibition of IL-5 production (column “% inh”) at a test dose of 1×10^−6 M, or in case the percentage inhibition is marked with an “*” 1×10^−5 M, the compounds of the present invention.

| Structure (SMILES) | % inh. (percentage inhibition of IL-5 production) [%] |
| --- | --- |
| CC(c1ccc(Cl)cc1)(c1nnc(-c2ccccc2)o1)c1c(Cl)cc(-n2ncc(=O)[nH]c2=O)cc1Cl (racemic) [Compound 206] | 82 |
| CC(c1ccc(Cl)c(C(F)(F)F)c1)(c1nc(-c2ccccc2)cs1)c1c(Cl)cc(-n2ncc(=O)[nH]c2=O)cc1Cl (racemic) [Comp 23] | 83 |
| COC1CCN(Cc2sc(C(c3ccc(Cl)cc3)c3c(Cl)cc(-n4ncc(=O)[nH]c4=O)cc3Cl)nc2-c2ccccc2)CC1.Cl.O (racemic) [Comp 314] | 81 |
| O=c1cnn(-c2cc(Cl)c(C(c3ccc(Cl)cc3)c3nc(-c4c(Cl)cccc4Cl)cs3)c(Cl)c2)c(=O)[nH]1 (racemic) [Comp 264] | 79 |
| Cc1nnc(C(c2ccc(Cl)cc2)c2ccc(-n3ncc(=O)[nH]c3=O)cc2Cl)o1 (racemic) [Comp 102] | 14 |
| CN(C)CCNC(=O)c1sc(C(c2ccc(Cl)cc2)c2c(Cl)cc(-n3ncc(=O)[nH]c3=O)cc2Cl)nc1-c1ccccc1.O (racemic) [Comp 312] | 57 |
| O=c1cnn(-c2cc(Cl)c(C(Sc3nc(-c4ccc(F)cc4F)cs3)c3ccc(Cl)c(C(F)(F)F)c3)c(Cl)c2)c(=O)[nH]1 (stereo not shown) [Compound 397] | 83 |
| O=c1cnn(-c2cc(Cl)c(C(c3ccc(Cl)cc3)c3nnc(-c4ccccn4)o3)c(Cl)c2)c(=O)[nH]1 (racemic) [Compound 169] | 81 |
| CS(=O)(=O)O.O.O.O=c1cnn(-c2cc(Cl)c(C(Sc3nccc(N4CCOCC4)n3)c3ccc(Cl)cc3)c(Cl)c2)c(=O)[nH]1 (racemic) [Compound 344] | 82 |
| CCCc1nnc(C(c2ccc(Cl)cc2)c2c(Cl)cc(-n3ncc(=O)[nH]c3=O)cc2Cl)o1 (racemic) [Compound 164] | 84 |
| O=c1cnn(-c2cc(Cl)c(C(c3ccc(Cl)cc3)c3nc(-c4ccc(Cl)c(Cl)c4)cs3)c(Cl)c2)c(=O)[nH]1 (racemic) [Comp 28] | 73 |
| O=c1cnn(-c2cc(Cl)c(C(Sc3cscn3)c3ccc(Cl)c(C(F)(F)F)c3)c(Cl)c2)c(=O)[nH]1 (stereo not shown) [Compound 387] | 93 |
| O=c1cnn(-c2ccc(C(c3ccc(Cl)cc3)c3nnc(-c4ccccc4)s3)c(Cl)c2)c(=O)[nH]1 (stereo not shown) [Comp 414] | 30 |
| O=c1cnn(-c2ccc(C(Sc3nccc(-c4cccs4)n3)c3ccc(Cl)cc3)c(Cl)c2)c(=O)[nH]1 (stereo not shown) [Compound 84] | 73 |
| O=c1cnn(-c2cc(Cl)c(C(c3ccc(Cl)cc3)c3nc(-c4ccc(-c5ccccc5)cc4)cs3)c(Cl)c2)c(=O)[nH]1 (racemic) [Comp 30] | 57 |
| O=c1cnn(-c2cc(Cl)c(C(c3ccc(Cl)cc3)c3csc(-c4cccc(F)c4)n3)c(Cl)c2)c(=O)[nH]1 (racemic) [Compound 368] | 88 |
| O=c1cnn(-c2ccc(C(SCc3ccco3)c3ccc(Cl)cc3)c(Cl)c2)c(=O)[nH]1 (racemic) [Compound 64] | 64 |
| O=c1cnn(-c2ccc(C(Sc3ccc(F)cc3)c3ccc(Cl)cc3)c(Cl)c2)c(=O)[nH]1 (racemic) [Compound 57] | 50 |
| Cc1cc(C(C)(c2ccc(Cl)c(C(F)(F)F)c2)c2nc(-c3ccccc3)cs2)c(Cl)cc1-n1ncc(=O)[nH]c1=O (racemic) [Comp 235] | 79 |
| CCOC(=O)Cc1nnc(C(c2ccc(Cl)cc2)c2c(Cl)cc(-n3ncc(=O)[nH]c3=O)cc2Cl)o1 (racemic) [Compound 176] | 3 |

| Structure (SMILES) | % inh. (percentage inhibition of IL-5 production) [%] |
| --- | --- |
| COc1ccccc1-c1nnc(C(c2ccc(Cl)cc2)c2c(Cl)cc(-n3ncc(=O)[nH]c3=O)cc2Cl)o1 (racemic) [Compound 174] | 83 |
| COC(c1ccc(Cl)cc1)(c1nc2ccccc2s1)c1ccc(-n2ncc(=O)[nH]c2=O)cc1Cl (stereo not shown) [Comp 418] | 47 |
| O=c1cnn(-c2ccc(C(c3ccc(Cl)cc3)c3sc(-c4ccccc4)nc3-c3ccccc3Cl)c(Cl)c2)c(=O)[nH]1 (racemic) [Compound 144] | 40 |
| O=C(Cc1sc(C(c2ccc(Cl)cc2)c2c(Cl)cc(-n3ncc(=O)[nH]c3=O)cc2Cl)nc1-c1ccccc1)N1CCOCC1 (racemic) [Comp 276] | 91 |
| COc1ccccc1-c1csc(C(c2ccc(Cl)cc2)c2c(Cl)cc(-n3ncc(=O)[nH]c3=O)cc2Cl)n1 (racemic) [Comp 263] | 92 |
| CN(C)Cc1csc(C(c2ccc(Cl)cc2)c2c(Cl)cc(-n3ncc(=O)[nH]c3=O)cc2Cl)n1 (racemic) [Comp 240] | 54 |
| CS(=O)(=O)Nc1cccc(-c2nnc(C(c3ccc(Cl)cc3)c3c(Cl)cc(-n4ncc(=O)[nH]c4=O)cc3Cl)o2)c1 (racemic) [Compound 208] | 48 |
| COc1ccccc1-c1nnc(C(c2ccc(Cl)cc2)c2c(Cl)cc(-n3ncc(=O)[nH]c3=O)cc2Cl)o1 (racemic) [Compound 171] | 59 |
| O=c1cnn(-c2ccc(C(Sc3ccncc3)c3ccc(Cl)cc3)c(Cl)c2)c(=O)[nH]1 (racemic) [Compound 65] | 50 |
| O=c1cnn(-c2cc(Cl)c(C(c3ccc(Cl)cc3)c3nnc(-c4ccco4)o3)c(Cl)c2)c(=O)[nH]1 (racemic) [Compound 161] | 91 |
| COc1ccc(-c2ccnc(SC(c3ccc(Cl)cc3)c3ccc(-n4ncc(=O)[nH]c4=O)cc3Cl)n2)cc1 (racemic) [Compound 79] | 74 |
| CNCc1sc(C(c2ccc(Cl)cc2)c2c(Cl)cc(-n3ncc(=O)[nH]c3=O)cc2Cl)nc1-c1ccccc1.Cl.O.O.O (racemic) [Comp 296] | 92 |
| CCOC(=O)c1cnc(SC(c2ccc(Cl)cc2)c2ccc(-n3ncc(=O)[nH]c3=O)cc2Cl)nc1O (racemic) [Compound 339] | 35 |
| O=c1cnn(-c2cc(Cl)c(C(Sc3nc4ccccc4s3)c3ccc(Cl)cc3)c(Cl)c2)c(=O)[nH]1 (stereo not shown) [Compound 384] | 95 |
| Cc1nc(-c2ccccc2)c(C(c2ccc(Cl)cc2)c2c(Cl)cc(-n3ncc(=O)[nH]c3=O)cc2Cl)s1 (racemic) [Compound 136] | 93 |
| Nc1ccc(-c2nnc(C(c3ccc(Cl)cc3)c3c(Cl)cc(-n4ncc(=O)[nH]c4=O)cc3Cl)o2)cc1 (racemic) [Compound 184] | 83 |
| CC(c1ccc(Cl)c(C(F)(F)F)c1)(c1nc(-c2ccccc2)cs1)c1ccc(-n2ncc(=O)[nH]c2=O)cc1Cl (racemic) [Comp 239] | 72 |
| O=c1cnn(-c2cc(Cl)c(C(c3ccc(Cl)cc3)c3nnc(-c4cccc(F)c4)o3)c(Cl)c2)c(=O)[nH]1 (racemic) [Compound 160] | 91 |
| O=c1cnn(-c2cc(Cl)c(C(c3ccc(Cl)cc3)c3nnc(-c4ccccc4)o3)c(Cl)c2)c(=O)[nH]1 (stereo not shown) [Compound 190, (B)-2-[3,5-dichloro-4-[(4-chlorophenyl)(5-phenyl-1,3,4-oxadizol-2-yl)methyl]phenyl]-1,2,4-triazine-3,5(2H,4H)-dione] | 83 |

Same assay, conditions: test dose 1×10^−6 M, 48 hours, read-out: % inh. (percentage inhibition of IL-5 production)

| Structure (SMILES) | inhibition at 1 µM [%] |
| --- | --- |
| CC(C)COC(c1ccc(Cl)cc1)c1ccc(-n2ncc(=O)[nH]c2=O)cc1Cl (racemic) [Compound 133, (±)-2-[3-chloro-4-[(4-chloro-phenyl)(2-methylpropoxy)methyl]phenyl]-1,2,4-triazine-3,5(2H,4H)-dione] | 50 |
| O=c1cnn(-c2cc(Cl)c(C(c3ccc(Cl)cc3)c3nc(-c4ccccc4)cs3)c(Cl)c2)c(=O)[nH]1 (racemic) [Compound 38, (±)-2-[3,5-dichloro-4-[(4-chlorophenyl)(4-phenyl-2-thiazolyl)methyl]phenyl]-1,2,4-triazine-3,5(2H,4H)-dione] | 92 |
| NC(c1ccc(Cl)cc1)(c1nccs1)c1ccc(-n2ncc(=O)[nH]c2=O)cc1Cl (racemic) [Compound 35, (±)-2-[3-chloro-4-[amino-(4-chlorophenyl)-2-thiazolylmethyl]phenyl]-1,2,4-triazine-3,5(2H,4H)-dione] | 56 |
| O=c1cnn(-c2cc(Cl)c(C(Sc3nccc(N4CCNCC4)n3)c3ccc(Cl)cc3)c(Cl)c2)c(=O)[nH]1 (racemic) [Compound 360, (±)-2-[3,5-dichloro-4-[(4-chlorophenyl)[[4-(1-piperazinyl)-2-pyrimidinyl]thio]methyl]phenyl]-1,2,4-triazine-3,5(2H,4H)-dione monohydrate] | 84 |
